Entries after “also recorded” stand apart in the source; their conditions may differ. Each block holds one molecule with its values, some of them ahead of it.
Columns and labels:
hNNMT [1] = molecular target: T1, hNNMT (Homo sapiens, UniProt P40261); experiment: Isothermal titration calorimetry; format: binding
T1 sequence (P40261 1-264): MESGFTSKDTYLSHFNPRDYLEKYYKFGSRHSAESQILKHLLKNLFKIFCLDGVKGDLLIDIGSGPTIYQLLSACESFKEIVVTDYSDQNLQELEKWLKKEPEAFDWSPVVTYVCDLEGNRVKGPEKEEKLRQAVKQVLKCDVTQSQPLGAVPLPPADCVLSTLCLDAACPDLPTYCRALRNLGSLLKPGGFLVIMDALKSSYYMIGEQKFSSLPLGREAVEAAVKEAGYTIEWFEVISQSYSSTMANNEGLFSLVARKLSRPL

hNNMT [2] = molecular target: T1, hNNMT; experiment: SAHH-coupled fluorescent assay of NNMT methyltransferase activity; format: biochemical
SMYD2 = SMYD2 (Homo sapiens, UniProt Q9NRG4); experiment: Selectivity assay, scintillation proximity assay; format: biochemical
Sequence of SMYD2 (Q9NRG4 whole entry, species assumed): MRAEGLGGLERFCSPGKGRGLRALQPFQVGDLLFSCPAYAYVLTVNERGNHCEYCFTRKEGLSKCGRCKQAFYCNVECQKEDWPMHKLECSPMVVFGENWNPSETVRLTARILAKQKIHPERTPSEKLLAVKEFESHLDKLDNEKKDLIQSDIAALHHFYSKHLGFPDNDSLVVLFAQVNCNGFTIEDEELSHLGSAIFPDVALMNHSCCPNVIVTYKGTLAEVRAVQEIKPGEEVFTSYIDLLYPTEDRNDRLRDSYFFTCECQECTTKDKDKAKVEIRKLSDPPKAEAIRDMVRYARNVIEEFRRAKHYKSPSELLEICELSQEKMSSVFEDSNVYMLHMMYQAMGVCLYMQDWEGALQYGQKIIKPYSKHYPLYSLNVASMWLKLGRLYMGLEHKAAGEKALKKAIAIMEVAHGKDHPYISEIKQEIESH

PRMT7 = molecular target: T2, PRMT7 (Homo sapiens, UniProt Q9NVM4); experiment: Selectivity assay, scintillation proximity assay; format: biochemical
T2 sequence (Q9NVM4 1-692): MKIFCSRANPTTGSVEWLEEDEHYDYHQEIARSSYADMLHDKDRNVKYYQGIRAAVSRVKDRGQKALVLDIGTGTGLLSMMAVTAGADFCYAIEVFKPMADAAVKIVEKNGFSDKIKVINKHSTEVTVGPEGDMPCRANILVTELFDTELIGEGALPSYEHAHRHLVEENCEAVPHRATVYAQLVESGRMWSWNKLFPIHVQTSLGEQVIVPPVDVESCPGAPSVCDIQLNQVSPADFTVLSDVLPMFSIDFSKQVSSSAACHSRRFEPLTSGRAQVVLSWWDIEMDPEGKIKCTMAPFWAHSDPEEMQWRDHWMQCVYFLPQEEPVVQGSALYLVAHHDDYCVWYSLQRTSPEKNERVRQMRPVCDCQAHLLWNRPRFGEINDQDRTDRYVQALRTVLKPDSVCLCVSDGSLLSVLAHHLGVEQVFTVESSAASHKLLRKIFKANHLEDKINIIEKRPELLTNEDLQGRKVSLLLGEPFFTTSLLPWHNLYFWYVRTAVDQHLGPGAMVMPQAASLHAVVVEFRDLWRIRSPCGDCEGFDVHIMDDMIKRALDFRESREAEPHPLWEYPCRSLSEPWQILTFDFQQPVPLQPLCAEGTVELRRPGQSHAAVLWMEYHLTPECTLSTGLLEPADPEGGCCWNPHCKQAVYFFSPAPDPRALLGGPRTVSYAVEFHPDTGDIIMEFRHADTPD

BCDIN3D = molecular target: T3, BCDIN3D (Homo sapiens, UniProt Q7Z5W3); experiment: Selectivity assay, scintillation proximity assay; format: biochemical
T3 sequence (Q7Z5W3 1-292): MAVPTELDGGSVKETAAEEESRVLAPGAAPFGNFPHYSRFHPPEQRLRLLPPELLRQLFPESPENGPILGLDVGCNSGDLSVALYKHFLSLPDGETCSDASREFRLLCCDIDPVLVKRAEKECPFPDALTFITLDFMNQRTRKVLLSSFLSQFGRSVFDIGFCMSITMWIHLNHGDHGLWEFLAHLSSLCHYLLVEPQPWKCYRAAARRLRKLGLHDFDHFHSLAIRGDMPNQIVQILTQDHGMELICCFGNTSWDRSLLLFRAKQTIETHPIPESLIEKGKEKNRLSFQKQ

DOT1L = DOT1L (Homo sapiens, UniProt Q8TEK3); experiment: Selectivity assay, filter-based 3H-SAM methyltransferase assay; format: biochemical
Sequence of DOT1L (Q8TEK3 whole entry, species assumed): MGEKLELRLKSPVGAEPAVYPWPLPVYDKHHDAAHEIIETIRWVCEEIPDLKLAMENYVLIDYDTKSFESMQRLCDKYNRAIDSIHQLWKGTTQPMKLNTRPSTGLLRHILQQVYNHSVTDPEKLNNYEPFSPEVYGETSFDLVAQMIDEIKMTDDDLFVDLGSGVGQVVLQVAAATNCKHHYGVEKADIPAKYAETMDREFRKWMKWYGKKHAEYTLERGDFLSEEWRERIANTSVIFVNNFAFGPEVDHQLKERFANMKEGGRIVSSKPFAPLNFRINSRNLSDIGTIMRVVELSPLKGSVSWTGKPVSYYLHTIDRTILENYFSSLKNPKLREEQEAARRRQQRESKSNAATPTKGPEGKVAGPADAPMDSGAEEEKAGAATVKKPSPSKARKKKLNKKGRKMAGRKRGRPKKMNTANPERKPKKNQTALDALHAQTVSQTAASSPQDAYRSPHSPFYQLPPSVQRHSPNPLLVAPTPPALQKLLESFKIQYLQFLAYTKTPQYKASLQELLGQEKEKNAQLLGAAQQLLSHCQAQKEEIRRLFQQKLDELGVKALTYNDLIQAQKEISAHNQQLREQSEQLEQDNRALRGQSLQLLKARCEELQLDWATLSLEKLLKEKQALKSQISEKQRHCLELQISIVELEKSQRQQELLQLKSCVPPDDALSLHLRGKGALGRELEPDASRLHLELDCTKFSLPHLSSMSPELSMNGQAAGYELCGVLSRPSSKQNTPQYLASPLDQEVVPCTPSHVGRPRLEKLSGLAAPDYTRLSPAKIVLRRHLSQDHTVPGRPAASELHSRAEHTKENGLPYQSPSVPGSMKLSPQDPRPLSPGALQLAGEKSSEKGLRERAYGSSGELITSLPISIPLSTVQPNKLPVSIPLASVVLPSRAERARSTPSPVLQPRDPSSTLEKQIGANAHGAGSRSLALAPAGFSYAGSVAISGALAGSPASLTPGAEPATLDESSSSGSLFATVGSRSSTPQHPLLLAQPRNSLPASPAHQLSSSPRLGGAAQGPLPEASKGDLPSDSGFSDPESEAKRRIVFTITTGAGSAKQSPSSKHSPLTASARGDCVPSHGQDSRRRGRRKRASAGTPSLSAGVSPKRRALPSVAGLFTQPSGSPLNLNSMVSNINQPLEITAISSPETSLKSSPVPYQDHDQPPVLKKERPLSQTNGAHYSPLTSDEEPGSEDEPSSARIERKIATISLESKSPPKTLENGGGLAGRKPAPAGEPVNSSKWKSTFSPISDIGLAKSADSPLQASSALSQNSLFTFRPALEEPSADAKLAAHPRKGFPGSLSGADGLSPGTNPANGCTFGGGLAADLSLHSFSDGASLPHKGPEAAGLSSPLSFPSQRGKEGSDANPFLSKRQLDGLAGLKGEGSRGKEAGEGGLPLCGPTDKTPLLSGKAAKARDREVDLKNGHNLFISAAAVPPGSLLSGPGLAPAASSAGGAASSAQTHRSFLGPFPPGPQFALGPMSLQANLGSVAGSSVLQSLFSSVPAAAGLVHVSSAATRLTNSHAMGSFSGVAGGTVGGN

[3] = substrate: NC(=O)c1cccnc1; experiment: purified protein, by the assay type; settings: other: SAHH-coupled assay; kcat 4.1 ± 0.2 min^-1; pH 7.5

Binding to hNNMT in ITC in the absence of the cofactor (hNNMT [1]; no cofactor): not observed
Molecule: NC(=O)c1cccnc1 [nicotinamide]

Molecule: C[S+](CC[C@H](N)C(=O)O)C[C@H]1O[C@@H](n2cnc3c(N)ncnc32)[C@H](O)[C@@H]1O (stereo partly drawn) [SAM, S-5′-adenosyl-L-methionine, reference compound]
Kd (hNNMT [1]; read-out: Kd for binding to hNNMT (ITC), 25 °C, 50 mM Tris pH 8.0, 100 mM NaCl): 56.4 ± 9.5 µM
Km (hNNMT [2]; read-out: Km for NNMT): 24 ± 6.8 µM

Hill slope, SMYD2 (SMYD2): 0.6
Hill slope, PRMT7 (PRMT7): 1.1
Hill slope, BCDIN3D (BCDIN3D): 1.3
Hill slope, DOT1L (DOT1L): 1.1
Mechanism of inhibition with respect to substrate nicotinamide (hNNMT [2]; 250 μM SAM, nicotinamide varied 12.5 to 200 μM, Lineweaver-Burk): noncompetitive inhibition
Molecule: NC(=O)c1cccc(CCN(CCC[C@H](N)C(=O)O)C[C@H]2O[C@@H](n3cnc4c(N)ncnc43)[C@H](O)[C@@H]2O)c1 [compound 6, (S)-2-Amino-5-((((2R,3S,4R,5R)-5-(6-amino-9H-purin-9-yl)-3,4-di-hydroxytetrahydrofuran-2-yl)methyl)(3-carbamoylphenethyl)-amino)pentanoic acid]
Mechanism of inhibition with respect to cofactor SAM (hNNMT [2]; 200 μM nicotinamide, SAM varied 12.5 to 200 μM, Lineweaver-Burk): SAM competitive; also recorded: competitive inhibition

B1: hNNMT (Homo sapiens) (protein)
chain: T1 sequence (P40261 1-264)
Km [3]: 20 ± 3 µM
